According to patent publication US8362204B2 (priority 2006, dated 2013):
Values joined by “and” are separate entries in the source; they are usually repeats but may differ in a detail not shown here. Identical values can stand only once. Positions of bridges follow the written chain, without caps; N, C: chain ends. Non-standard residues stand in square brackets, D forms with d. Residues, ends and D or L forms follow the SMILES beside them. ξ: configuration not given here. Ala(indol-2-yl) = N[C@@H](Cc1cc2ccccc2[nH]1)C(=O)O; AllylGly = C=CC[C@H](N)C(=O)O; ξP = O=C(O)C1CCCN1

Columns and labels:
[1] = biological target: T1, neuronal-type nicotinic receptors (Bos taurus, UniProt Q07263+Q8SPU6); type: cell-based, Bovine
T1 construct: monolayer cultures of bovine adrenal chromaffin cells; endogenous in cells; host or cells: bovine adrenal chromaffin cells (primary monolayer cultures)

[2] = biological target: T1, neuronal-type nicotinic receptors; settings: cited from earlier work

T1 sequence (Q07263 22-495): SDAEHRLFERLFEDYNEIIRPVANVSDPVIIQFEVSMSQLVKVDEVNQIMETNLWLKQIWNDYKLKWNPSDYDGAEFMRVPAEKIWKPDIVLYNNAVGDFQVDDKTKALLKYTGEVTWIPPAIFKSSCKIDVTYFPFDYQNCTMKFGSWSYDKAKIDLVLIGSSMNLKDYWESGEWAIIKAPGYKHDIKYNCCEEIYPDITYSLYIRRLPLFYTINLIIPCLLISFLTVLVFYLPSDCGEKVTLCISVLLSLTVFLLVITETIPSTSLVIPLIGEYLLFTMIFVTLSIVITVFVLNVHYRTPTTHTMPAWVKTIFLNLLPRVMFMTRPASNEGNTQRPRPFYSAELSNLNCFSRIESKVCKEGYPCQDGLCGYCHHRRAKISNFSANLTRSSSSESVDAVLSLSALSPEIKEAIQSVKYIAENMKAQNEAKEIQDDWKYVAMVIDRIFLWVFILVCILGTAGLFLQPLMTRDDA
T1 sequence (Q8SPU6 20-496): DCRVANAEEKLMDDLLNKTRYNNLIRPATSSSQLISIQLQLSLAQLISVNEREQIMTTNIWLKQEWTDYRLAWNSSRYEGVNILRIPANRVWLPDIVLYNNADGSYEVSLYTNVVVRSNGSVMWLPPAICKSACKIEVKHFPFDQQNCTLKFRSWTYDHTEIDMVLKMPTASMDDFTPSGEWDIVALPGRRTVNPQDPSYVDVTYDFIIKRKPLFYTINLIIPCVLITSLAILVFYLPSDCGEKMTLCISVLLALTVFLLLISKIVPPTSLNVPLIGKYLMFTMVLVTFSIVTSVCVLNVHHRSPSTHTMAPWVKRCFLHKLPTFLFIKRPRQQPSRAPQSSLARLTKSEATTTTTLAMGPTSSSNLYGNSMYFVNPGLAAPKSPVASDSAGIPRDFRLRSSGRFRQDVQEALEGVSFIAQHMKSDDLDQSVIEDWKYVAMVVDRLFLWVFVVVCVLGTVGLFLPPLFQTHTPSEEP

Compound	Adrenaline Release, 1st-4th (individual wells) [1]	Adrenaline Release, % control [1]	Adrenaline Release, mean [1]	Noradrenaline Release, 1st-4th (individual wells) [1]	Noradrenaline Release, % control [1]	Noradrenaline Release, mean [1]	Noradrenaline Release, % inhibition [1]	noradrenaline released, basal release (0.72%) subtracted [1]	effect on nicotine-stimulated release of adrenaline and noradrenaline [2]
C[C@@H]1NC(=O)[C@@H]2CCCC[C@H](NC(=O)CN)C(=O)N[C@@H](CSSC[C@@H](C(N)=O)NC(=O)[C@H](CCCNC(=N)N)NC(=O)[C@H](Cc3cc4ccccc4[nH]3)NC1=O)C(=O)N[C@@H](CO)C(=O)N[C@@H](CC(=O)O)C(=O)N1CCCC1C(=O)N[C@@H](CCCNC(=N)N)C(=O)N2 (stereo partly drawn) [compound 118, [2,8]-Dicarba-[3,12]-Cystino Conotoxin ImI: NH2-Gly-c[Hag-Cys-Ser-Asp-Pro-Arg-Hag]-Ala-Trp-Arg-Cys)-NH2]	2.94% and 4.40% and 4.46% and 4.09% and 2.55% and 3.63% and 2.62% and 3.31%	88.260% and 65.306%	3.97% and 3.03%	4.52% and 6.29% and 7.00% and 7.34% and 4.19% and 5.86% and 4.32% and 5.51%	90.859% and 69.384%	6.29% and 4.97%			
C[C@@H]1NC(=O)[C@@H]2CSSC[C@H](NC(=O)CN)C(=O)N[C@@H](CC=CC[C@@H](C(N)=O)NC(=O)[C@H](CCCNC(=N)N)NC(=O)[C@H](Cc3cc4ccccc4[nH]3)NC1=O)C(=O)N[C@@H](CO)C(=O)N[C@@H](CC(=O)O)C(=O)N1CCCC1C(=O)N[C@@H](CCCNC(=N)N)C(=O)N2 (stereo partly drawn) [compound 119, [2,8]-Cystino-[3,12]-Dicarba Conotoxin ImI: NH2-Gly-Cys-c [Hag-Ser-Asp-Pro-Arg-Cys-Ala-Trp-Arg-Hag]-NH2] (H-GC[AllylGly]SD[ξP]RCA[Ala(indol-2-yl)]R[AllylGly]-NH2; disulfide 2-8; staple 3-12)	3.31% and 3.67% and 4.14% and 3.98% and 2.32% and 2.95% and 2.76% and 3.02%	83.420% and 58.888%	3.77% and 2.76%	4.89% and 5.75% and 5.73% (2×) and 3.22% and 4.58% and 3.99% and 4.81%	78.400% and 55.971%	5.52% and 4.15%	21.600%	3.43%	
C[C@@H]1NC(=O)[C@@H]2CSSC[C@H](NC(=O)CN)C(=O)N[C@@H](CSSC[C@@H](C(N)=O)NC(=O)[C@H](CCCNC(=N)N)NC(=O)[C@H](Cc3cc4ccccc4[nH]3)NC1=O)C(=O)N[C@@H](CO)C(=O)N[C@@H](CC(=O)O)C(=O)N1CCCC1C(=O)N[C@@H](CCCNC(=N)N)C(=O)N2 (stereo partly drawn) [native-Ctx ImI] (H-GCCSD[ξP]RCA[Ala(indol-2-yl)]RC-NH2; disulfide 2-8, 3-12)									inhibit
